Assay results as given in ChEMBL document CHEMBL1137191, “Evaluation of pyrrolidin-2-imines and 1,3-thiazolidin-2-imines as inhibitors of nitric oxide synthase” (Bioorg Med Chem Lett, 2004).

How the values were obtained:
Nitric oxide synthase 1 = Nitric oxide synthase 1 (Homo sapiens, UniProt P29475); assay: Inhibitory activity against Neuronal nitric oxide synthase
Nitric oxide synthase 3 = biological target: T1, Nitric oxide synthase 3 (Homo sapiens, UniProt P29474); assay: Inhibitory activity against Endothelial nitric oxide synthase
T1 sequence (P29474 whole entry): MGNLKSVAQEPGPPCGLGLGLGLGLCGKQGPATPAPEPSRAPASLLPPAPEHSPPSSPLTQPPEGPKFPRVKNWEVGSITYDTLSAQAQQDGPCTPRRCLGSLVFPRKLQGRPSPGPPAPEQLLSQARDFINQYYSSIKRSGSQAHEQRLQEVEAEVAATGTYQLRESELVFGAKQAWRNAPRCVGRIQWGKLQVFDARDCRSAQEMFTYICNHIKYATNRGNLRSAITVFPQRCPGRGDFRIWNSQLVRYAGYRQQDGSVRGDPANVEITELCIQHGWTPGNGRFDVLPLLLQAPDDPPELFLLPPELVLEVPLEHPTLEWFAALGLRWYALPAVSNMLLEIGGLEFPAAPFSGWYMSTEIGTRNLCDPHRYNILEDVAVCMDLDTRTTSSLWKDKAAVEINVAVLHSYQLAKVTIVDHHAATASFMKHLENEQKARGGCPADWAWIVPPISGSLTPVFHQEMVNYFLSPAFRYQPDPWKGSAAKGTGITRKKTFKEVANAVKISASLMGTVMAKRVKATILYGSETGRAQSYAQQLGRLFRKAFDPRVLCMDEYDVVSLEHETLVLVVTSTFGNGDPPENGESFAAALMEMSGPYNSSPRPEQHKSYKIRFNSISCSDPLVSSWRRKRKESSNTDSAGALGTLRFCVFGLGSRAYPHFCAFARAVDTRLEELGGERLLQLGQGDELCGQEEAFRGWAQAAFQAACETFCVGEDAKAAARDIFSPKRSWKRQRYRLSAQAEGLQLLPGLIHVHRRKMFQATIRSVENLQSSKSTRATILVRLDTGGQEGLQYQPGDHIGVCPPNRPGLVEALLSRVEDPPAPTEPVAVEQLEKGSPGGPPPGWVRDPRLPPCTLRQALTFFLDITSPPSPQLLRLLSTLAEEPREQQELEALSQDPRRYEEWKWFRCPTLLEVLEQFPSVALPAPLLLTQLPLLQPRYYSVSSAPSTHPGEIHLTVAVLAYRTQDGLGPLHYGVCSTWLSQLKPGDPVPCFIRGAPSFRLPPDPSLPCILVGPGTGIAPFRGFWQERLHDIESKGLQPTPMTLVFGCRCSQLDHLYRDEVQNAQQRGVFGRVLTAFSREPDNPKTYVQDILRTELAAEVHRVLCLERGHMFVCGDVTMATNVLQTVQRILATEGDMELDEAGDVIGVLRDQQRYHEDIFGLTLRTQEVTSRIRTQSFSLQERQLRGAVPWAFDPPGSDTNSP

[1] = biological target: Nitric oxide synthase, inducible (Homo sapiens, UniProt P35228); assay: Inhibitory activity against Inducible nitric oxide synthase
[2] = biological target: T2, Nitric oxide synthase 3 (Homo sapiens) (UniProt P29474); assay: Ratio between Endothelial nitric oxide synthase and Inducible nitric oxide synthase
T2 sequence (whole entry): T1 sequence (P29474 whole entry)

Nitric oxide synthase, inducible, sequence (P35228 whole entry): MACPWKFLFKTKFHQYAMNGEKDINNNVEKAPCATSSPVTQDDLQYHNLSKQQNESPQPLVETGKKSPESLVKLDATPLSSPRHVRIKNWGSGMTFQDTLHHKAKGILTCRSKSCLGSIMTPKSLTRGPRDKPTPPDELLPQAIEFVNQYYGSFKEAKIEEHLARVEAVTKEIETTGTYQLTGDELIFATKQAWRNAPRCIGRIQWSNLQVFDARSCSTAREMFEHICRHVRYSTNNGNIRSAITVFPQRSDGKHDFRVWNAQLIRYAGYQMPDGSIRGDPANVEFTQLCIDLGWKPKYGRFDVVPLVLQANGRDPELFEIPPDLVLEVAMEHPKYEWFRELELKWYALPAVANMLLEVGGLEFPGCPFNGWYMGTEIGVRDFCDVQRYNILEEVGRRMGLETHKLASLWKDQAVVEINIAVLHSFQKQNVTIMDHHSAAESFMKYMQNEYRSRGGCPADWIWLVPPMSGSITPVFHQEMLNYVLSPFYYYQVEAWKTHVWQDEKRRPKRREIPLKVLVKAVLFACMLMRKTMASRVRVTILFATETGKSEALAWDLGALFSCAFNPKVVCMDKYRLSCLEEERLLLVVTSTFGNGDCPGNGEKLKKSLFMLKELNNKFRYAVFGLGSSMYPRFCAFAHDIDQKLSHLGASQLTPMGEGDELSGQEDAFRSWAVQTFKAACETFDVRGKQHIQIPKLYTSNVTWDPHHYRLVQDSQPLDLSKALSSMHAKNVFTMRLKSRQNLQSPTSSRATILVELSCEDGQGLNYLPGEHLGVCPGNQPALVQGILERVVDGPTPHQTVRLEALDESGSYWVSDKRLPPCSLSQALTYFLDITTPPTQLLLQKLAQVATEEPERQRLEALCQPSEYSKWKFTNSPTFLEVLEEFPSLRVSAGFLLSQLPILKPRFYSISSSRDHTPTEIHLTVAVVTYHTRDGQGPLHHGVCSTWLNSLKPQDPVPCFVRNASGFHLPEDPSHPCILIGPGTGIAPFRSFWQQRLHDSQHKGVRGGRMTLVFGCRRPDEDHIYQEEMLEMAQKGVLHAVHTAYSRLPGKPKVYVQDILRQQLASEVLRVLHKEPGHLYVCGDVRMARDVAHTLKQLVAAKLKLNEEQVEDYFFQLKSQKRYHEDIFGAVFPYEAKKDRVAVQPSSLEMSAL
Nitric oxide synthase 1, sequence (P29475 whole entry): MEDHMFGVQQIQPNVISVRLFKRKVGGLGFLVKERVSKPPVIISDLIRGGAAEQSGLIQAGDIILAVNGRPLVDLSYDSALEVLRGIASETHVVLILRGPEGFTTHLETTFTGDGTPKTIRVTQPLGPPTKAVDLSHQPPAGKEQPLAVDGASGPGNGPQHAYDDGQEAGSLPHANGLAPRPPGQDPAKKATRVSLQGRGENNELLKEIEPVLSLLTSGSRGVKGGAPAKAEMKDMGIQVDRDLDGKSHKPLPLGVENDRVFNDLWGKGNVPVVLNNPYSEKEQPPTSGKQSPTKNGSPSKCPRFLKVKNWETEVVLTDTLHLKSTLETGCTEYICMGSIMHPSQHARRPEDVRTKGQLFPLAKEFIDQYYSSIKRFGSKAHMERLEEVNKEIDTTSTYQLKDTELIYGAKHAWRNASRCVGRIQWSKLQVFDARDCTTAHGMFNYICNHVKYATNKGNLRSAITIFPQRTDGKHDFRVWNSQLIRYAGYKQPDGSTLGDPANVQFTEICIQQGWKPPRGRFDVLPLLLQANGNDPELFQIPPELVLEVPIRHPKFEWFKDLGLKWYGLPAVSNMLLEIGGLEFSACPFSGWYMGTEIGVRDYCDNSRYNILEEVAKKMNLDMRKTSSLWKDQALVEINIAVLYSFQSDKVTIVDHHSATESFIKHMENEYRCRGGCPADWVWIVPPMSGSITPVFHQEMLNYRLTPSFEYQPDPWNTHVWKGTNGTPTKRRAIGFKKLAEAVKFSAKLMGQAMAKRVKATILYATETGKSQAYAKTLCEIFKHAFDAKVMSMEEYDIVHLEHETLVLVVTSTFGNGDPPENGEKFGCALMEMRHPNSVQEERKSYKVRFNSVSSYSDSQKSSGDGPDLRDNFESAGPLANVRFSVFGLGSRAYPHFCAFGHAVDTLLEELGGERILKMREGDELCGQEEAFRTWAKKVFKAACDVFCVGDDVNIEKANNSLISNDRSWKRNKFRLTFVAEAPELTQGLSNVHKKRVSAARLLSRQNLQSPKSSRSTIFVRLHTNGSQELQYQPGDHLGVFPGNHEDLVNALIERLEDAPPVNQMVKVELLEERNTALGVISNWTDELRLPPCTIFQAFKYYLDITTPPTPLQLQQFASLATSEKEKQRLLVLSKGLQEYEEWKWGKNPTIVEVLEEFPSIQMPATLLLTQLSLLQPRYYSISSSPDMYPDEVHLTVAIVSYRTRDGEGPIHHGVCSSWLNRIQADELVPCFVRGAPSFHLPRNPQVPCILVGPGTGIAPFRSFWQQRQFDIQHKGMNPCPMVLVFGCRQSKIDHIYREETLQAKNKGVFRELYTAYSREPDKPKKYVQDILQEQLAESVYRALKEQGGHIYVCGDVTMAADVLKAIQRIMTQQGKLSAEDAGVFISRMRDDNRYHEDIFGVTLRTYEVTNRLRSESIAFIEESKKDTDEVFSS

Row | SMILES | IC50 (Nitric oxide synthase 1) | IC50 (Nitric oxide synthase 3) | IC50 [1] | Ratio [2]
1 | NC1=NCCC1 | 9.6 µM | 4.6 µM | 4.1 µM | 1.1
2 | CCC1CC(C)C(N)=N1 (stereo unspecified) | 2.4 µM | 5.5 µM | 23 µM | 0.24
3 | CC1CC(N)=NC1C (stereo unspecified) | 0.13 µM | 0.6 µM | 0.3 µM | 
4 | NC1=NCC(c2ccccc2)C1 (stereo unspecified) | > 50 µM | > 50 µM | > 50 µM | 
5 | CCC1CN=C(N)C1 (stereo unspecified) | 2.6 µM | 14.5 µM | 0.5 µM | 27
6 | CCCC1N=C(N)CC1C (stereo unspecified) | 4.8 µM | 49 µM | 2 µM | 24
7 | CCC1CN=C(N)C1C (stereo unspecified) | 0.61 µM | 60.6 µM | 0.93 µM | 65
8 | CC1CN=C(N)C1 (stereo unspecified) | 0.8 µM | 2.6 µM | 0.2 µM | 13
9 | CCCC1CC(N)=NC1C (stereo unspecified) | 27 µM | 104 µM | 13.1 µM | 8
10 | CC1CCN=C1N (stereo unspecified) | 0.9 µM | 1.8 µM | 1.5 µM | 1.2
11 | CC(=N)NCCCC[C@H](N)C(=O)O [L-NIL] | 17.5 µM |  |  | 3.7
12 | N=C1SCC2CCCN12 (stereo unspecified) | 14 µM | > 50 µM | > 50 µM | 
13 | CC1CN=C(N)C1C (stereo unspecified) | 0.61 µM | 8.7 µM | 1.2 µM | 7.2
14 | N=C1SCC2CCCCN12 (stereo unspecified) | > 50 µM | > 50 µM | > 50 µM | 
15 | CCCCC1CSC(N)=N1 (stereo unspecified) | 13.2 µM | > 50 µM | 5.2 µM | 
16 | NC1=NC2CCCC2C1 (stereo unspecified) | 9.9 µM | > 50 µM | > 50 µM | 
17 | NC1=NC(c2ccccc2)CS1 (stereo unspecified) | > 50 µM | > 50 µM | > 50 µM | 
18 | CCCC1CC(N)=NC1CC (stereo unspecified) | 17.3 µM | 227 µM | 10.2 µM | 22
19 | CC1CCC(N)=N1 (stereo unspecified) | 3.1 µM | 1.9 µM | 1.3 µM | 1.4
20 | CCC1N=C(N)CC1C (stereo unspecified) | 0.08 µM | 0.52 µM | 0.02 µM | 26
21 | NC1=NCCS1 | 1.8 µM | 1.1 µM | 0.9 µM | 1.2
22 | CC(C)C1CN=C(N)C1 (stereo unspecified) | 10.6 µM | 87.8 µM | 3.5 µM | 25
23 | CCC1CC(N)=NC1C (stereo unspecified) | 0.14 µM | 6.3 µM | 0.16 µM | 38
24 | N=C1CCC2CCCN12 (stereo unspecified) | 9.6 µM | 33 µM | > 50 µM | 
25 | CCCC1CN=C(N)C1 (stereo unspecified) | 53 µM | 53 µM | 38.7 µM | 1.4
26 | CC1CN=C(N)S1 (stereo unspecified) | > 50 µM | > 50 µM | > 50 µM | 
27 | N=C1CCC2CCCCN12 (stereo unspecified) | > 50 µM | > 50 µM | > 50 µM | 
